According to paper PMC7525318, “Identification of Six Flavonoids as Novel Cellular Antioxidants and Their Structure-Activity Relationship” (Oxidative Medicine and Cellular Longevity, 2020):
Like-named read-outs stand apart in the source and are kept apart here.

Assays:
[1] = DPPH radical scavenging activity; conditions: 0.1 mM DPPH in methanol, 37°C, 30 min
Method: This assay was conducted as previously described by Wen et al. with some modifications. DPPH was freshly prepared in methanol at a concentration of 0.1 mM. The solution (20 μL) containing the tested compounds with different concentrations was added into the DPPH solution (180 μL) in the 96-well plates. […] The IC50 value was calculated on the scavenging activity against DPPH radical.

HepG2 cells [2] = experiment: Cellular antioxidant activity (CAA) assay; assay type: cell-based; conditions: DCFH-DA 25 μM, ABAP 600 μM
Method: The CAA assay was tested as described previously. 6 × 10^4 cells/well of HepG2 cells were seeded at a 96-well microplate with 100 μL of growth medium/well. […] Then, the cells were washed with PBS and treated with 100 μL of 600 μM ABAP (dissolved in HBSS), and the 96-well microplate was immediately placed into an Infinite SpectraMax i3x Multi-Mode Detection plate-reader at 37°C. […]

[3] = tested on: superoxide dismutase (SOD); experiment: Intracellular SOD activity in ABAP-treated HepG2 cells; assay type: cell-based; conditions: then ABAP
Method: (§1) HepG2 cells were seeded (1 × 10^6 cells/well) in six-well plates. After incubation for 24 h, the cells were pretreated with different concentration samples. Medium was washed by PBS and treated with 600 μM ABAP. The cells were collected and treated with cell lysis buffer (20 mM Tris at pH 7.5, 150 mM NaCl and 1% Triton X-100) at 4°C. The lysed cells were used to measure the intracellular activities of SOD, CAT, and GSH-Px by kits according to the manufacturer instructions (Wen 2015). Cells without sample and ABAP treatment were used as positive control (PC), while cells treated with ABAP but not sample were used as negative control (NC).

catalase (CAT) = experiment: Intracellular CAT activity in ABAP-treated HepG2 cells; assay type: cell-based; conditions: for CAT activity of PC value: % of PC value; for increase of CAT activity: HepG2, pretreatment before ABAP
Method: as §1

[4] = tested on: glutathione peroxidase (GSH-Px); experiment: Intracellular GSH-Px activity in ABAP-treated HepG2 cells; assay type: cell-based; conditions: for GSH-Px activity of PC value: % of PC value; for increase of GSH-Px activity: HepG2, pretreatment before ABAP
Method: as §1

HepG2 cells [5] = experiment: Cytotoxicity assay (CCK-8); assay type: cell-based
Method: (§2) The cytotoxicity and antiproliferative activity assays were performed by using the CCK-8 assay kit. Briefly, HepG2 cells were cultured at a density of 4 × 10^4 cells/well or 2.5 × 10^4 cells/well in a 96-well microplate with growth medium. After incubation at 37°C, the growth medium is treated with 100 μL of growth medium containing different concentrations of tested compounds for 24 h or 72 h. The wells having growth medium without the tested compound served as control. Then, the cells were incubated with 10 μL/well CCK-8 solutions for 2 h at 37°C. The absorbance values of each well were measured at 450 nm using a microplate reader (SpectraMax i3x, ForteBio Analytics Co., Ltd., USA). The cytotoxic activity and antiproliferative effects of the tested compound was calculated as(1) Cytotoxicity %=1−As/Ac×100%, (2) Cell proliferation %=As/Ac×100%, where As is the absorbance of the well with compound; Ac is the absorbance of control.

[6] = Oxygen radical antioxidant capacity (ORAC) assay; conditions: Trolox equivalents; AAPH, fluorescein
Method: The ORAC assay was evaluated as previously described by Cao et al. with some modifications. 50 μL of samples or Trolox with different concentrations and the fluorescein solution was added to a 96-well microplate, which was incubated at 37°C for 10 min. […] The ORAC values were calculated by the regression equation between the Trolox concentration and the net area under the curve (expressed as μmol Trolox eq/μmol sample).

HepG2 cells [7] = experiment: Antiproliferative activity assay (CCK-8); assay type: cell-based
Method: as §2

[8] = HepG2, pretreated at a higher concentration
[9] = HepG2, pretreated with 10 μM, then ABAP
[10] = HepG2, pretreated with 20 μM, then ABAP
[11] = HepG2, pretreated with 30 μM, then ABAP
[12] = HepG2, pretreated with 5 μM, then ABAP
[13] = HepG2, pretreated with 15 μM, then ABAP
[14] = HepG2, pretreated with 45 μM, then ABAP
[15] = HepG2, first of three concentrations (not given)
[16] = HepG2, second of three concentrations (not given)
[17] = HepG2, third of three concentrations (not given)

| Compound | IC50 [1] [µM] | EC50 (HepG2 cells [2]; Homo sapiens) [µM] | SOD activity compared to NC cells [3, 8] | increase of CAT activity (catalase (CAT)) | increase of GSH-Px activity [4] | cytotoxicity (HepG2 cells [5]; range of 10-160 μM) | ORAC values [6] [μmol TE/μmol] | further results |
| --- | --- | --- | --- | --- | --- | --- | --- | --- |
| O=c1c(O[C@@H]2O[C@@H](CO)[C@H](O)[C@H]2O)c(-c2ccc(O)c(O)c2)oc2cc(O)cc(O)c12 [compound 10, Avicularin] | 71.7 | 45.1 ± 2.12 | significant increase | dose-dependent manner | dose-dependent manner | no significant effects | – | SOD activity compared to NC cells ([3]; HepG2, pretreated with 10 μM): insignificant increase; CAT activity of PC value (catalase (CAT); [9]): 51.90 ± 3.21%; CAT activity of PC value (catalase (CAT); [10]): 68.95 ± 4.22%; CAT activity of PC value (catalase (CAT); [11]): 81.82 ± 4.25%; GSH-Px activity of PC value [4, 9]: 54.37 ± 3.05%; GSH-Px activity of PC value [4, 10]: 68.21 ± 4.25%; GSH-Px activity of PC value [4, 11]: 81.82 ± 5.52% |
| Rhamnetin [compound 2] | 34 ± 0.61 | – | significant increase | dose-dependent manner | dose-dependent manner | no significant effects | 4.72 ± 0.02 | EC50 (HepG2 cells [2]): 10.8 ± 0.34 µM; SOD activity compared to NC cells ([3]; HepG2, pretreated with 5 μM): insignificant increase; CAT activity of PC value (catalase (CAT); [12]): 56.58 ± 3.25%; CAT activity of PC value (catalase (CAT); [9]): 74.98 ± 4.25%; CAT activity of PC value (catalase (CAT); [13]): 83.10 ± 4.54%; GSH-Px activity of PC value [4, 12]: 65.09 ± 3.21%; GSH-Px activity of PC value [4, 9]: 71.88 ± 4.23%; GSH-Px activity of PC value [4, 13]: 81.24 ± 5.65% |
| COc1c(-c2ccc(O)c(O)c2)oc2cc(O)cc(O)c2c1=O [compound 5, 3-O-methylquercetin] | > 200 | 19.5 ± 1.48 | significant increase | dose-dependent manner | dose-dependent manner | no significant effects | 4.71 ± 0.12 | SOD activity compared to NC cells ([3]; HepG2, pretreated with 15 μM): insignificant increase; CAT activity of PC value (catalase (CAT); [13]): 49.55 ± 3.21%; CAT activity of PC value (catalase (CAT); [11]): 69.34 ± 5.15%; CAT activity of PC value (catalase (CAT); [14]): 80.67 ± 7.13%; GSH-Px activity of PC value [4, 13]: 59.74 ± 3.23%; GSH-Px activity of PC value [4, 11]: 69.08 ± 4.27%; GSH-Px activity of PC value [4, 14]: 83.44 ± 4.18%; cytotoxicity revealed by the cell proliferative assay (HepG2 cells [7]): slightly cytotoxicity; IC50 (HepG2 cells [7]; Homo sapiens): 90.7 ± 2.45 µM; cytotoxicity revealed by the cell proliferative assay (HepG2 cells [7]; listed as 3-O-methylquercetin): low cytotoxicity |
| O=c1cc(-c2ccc(O)c(O)c2)oc2cc(O)c([C@@H]3O[C@H](CO)[C@@H](O)[C@H](O)[C@H]3O)c(O)c12 [compound 32, Isoorientin] | > 200 | 139 ± 5.21 | significant increase | dose-dependent manner | dose-dependent manner | no significant effects | – | SOD activity compared to NC cells ([3]; HepG2, pretreated with 40 μM): insignificant increase; CAT activity of PC value (catalase (CAT); [15]): 44.93 ± 2.23%; CAT activity of PC value (catalase (CAT); [16]): 52.68 ± 3.42%; CAT activity of PC value (catalase (CAT); [17]): 68.35 ± 3.72%; GSH-Px activity of PC value [4, 15]: 47.79 ± 3.28%; GSH-Px activity of PC value [4, 16]: 55.99 ± 3.57%; GSH-Px activity of PC value [4, 17]: 71.20 ± 4.28% |
| COc1cc(-c2[o+]c3cc(O)cc(OC4OC(CO)C(O)C(O)C4O)c3cc2OC2OC(CO)C(O)C(O)C2O)cc(OC)c1O (stereo not shown) [compound 57, Malvin] | > 200 | > 200 | – | – | – | – | 4.32 ± 0.19 | – |
| Oc1cc(O)c2cc(O)c(-c3cc(O)c(O)c(O)c3)[o+]c2c1 [compound 52, Delphinidin chloride] | 36.8 ± 4.26 | 24.91 ± 0.12 | – | – | – | – | 5.02 ± 0.02 | – |
| O=c1c(O)c(-c2ccc(O)cc2)oc2cc(OC3O[C@H](CO)[C@@H](O)[C@H](O)[C@H]3O)cc(O)c12 (stereo partly shown) [compound 13, Kaempferol-7-O-glucopyranoside] | > 200 | 57.8 ± 3.12 | significant increase | dose-dependent manner | dose-dependent manner | no significant effects | – | SOD activity compared to NC cells ([3]; HepG2, pretreated with 20 μM): insignificant increase; cytotoxicity (HepG2 cells [5]; at higher concentration): slight cytotoxicity |
| O=c1cc(-c2ccc(O)cc2)oc2c([C@@H]3O[C@H](CO)[C@@H](O)[C@H](O)[C@H]3O)c(O)cc(O)c12 [compound 30, Vitexin] | > 200 | > 200 | – | – | – | – | 6.80 ± 0.42 | – |
| O=c1c(O)c(-c2ccc(O)cc2)oc2c(O)c(O)cc(O)c12 [compound 8, Herbacetin] | > 200 | 27.1 ± 2.47 | significant increase | dose-dependent manner | dose-dependent manner | no significant effects | 5.05 ± 0.05 | SOD activity compared to NC cells ([3]; HepG2, pretreated with 15 μM): insignificant increase; CAT activity of PC value (catalase (CAT); [15]): 50.86 ± 2.23%; CAT activity of PC value (catalase (CAT); [16]): 67.01 ± 5.32%; CAT activity of PC value (catalase (CAT); [17]): 80.86 ± 5.21%; GSH-Px activity of PC value [4, 15]: 54.02 ± 3.02%; GSH-Px activity of PC value [4, 16]: 63.46 ± 2.51%; GSH-Px activity of PC value [4, 17]: 82.02 ± 5.35% |
| O=c1c(O)c(-c2ccc(O)cc2O)oc2cc(O)cc(O)c12 [compound 4, Morin] | > 200 | 15.2 ± 0.32 | – | – | – | – | 5.98 ± 0.01 | – |
| COc1ccc(-c2cc(=O)c3c(O)cc(O)cc3o2)cc1O [compound 36, Diosmetin] | > 200 | > 200 | – | – | – | – | 5.02 ± 0.14 | – |
| O=C(O[C@@H]1Cc2c(O)cc(O)cc2O[C@@H]1c1cc(O)c(O)c(O)c1)c1cc(O)c(O)c(O)c1 [compound 60, Epigallocatechin gallate] | 19.1 ± 0.62 | 25.91 ± 0.25 | – | – | – | – | 6.02 ± 0.14 | – |
